These results are taken from PubChem BioAssay (NCI).

Some test systems named below: MCF7 breast; HOP-92 NSCLC; A549 NSCLC; NCI/ADR-RES ovarian; U251 CNS; A498 renal; MOLT-4 leukemia; SK-MEL-28 melanoma; DMS 114 small cell lung; KM20L2 colon.
Common to all, as to test: NCI tumour cell line growth inhibition, 48 h

Values joined by “and” are separate entries in the source; they are usually repeats but may differ in a detail not shown here. Equal entries are not always repeated.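 Where inhibition never reached the appropriate level, the endpoint shown equals the highest concentration tested. Otherwise, values were interpolated linearly from a five-concentration, 48-hour dose response in 96-well plates. GI50 = concentration required for 50% inhibition of growth. TGI is the concentration that stops growth completely.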

With `N#CC1=C(N)Oc2c(sc3c(Br)cccc23)C1c1ccc(F)cc1` (stereo not drawn), the GI50 in the assay on MCF7 breast was 0.273 µM; with HOP-92 NSCLC it was 11.5 µM; in the assay on A549 NSCLC it was 0.519 µM; with NCI/ADR-RES ovarian, 0.215 µM; in the assay with U251 CNS it was 0.473 µM; in the assay on A498 renal it was 0.314 µM. Moreover, the results for the GI50 in the assay with MOLT-4 leukemia and in the assay with SK-MEL-28 melanoma were 0.473 µM and 1.61 µM, respectively. Besides, the TGI with MCF7 breast stood at 14.3 µM; in the assay with HOP-92 NSCLC, 32.2 µM; with A549 NSCLC, 18 µM; with NCI/ADR-RES ovarian, 2.63 µM; in the assay on U251 CNS it was 13.4 µM; with A498 renal it was 16.7 µM. For the same molecule, the TGI was 14.2 µM in the assay on MOLT-4 leukemia and 28.2 µM in the assay with SK-MEL-28 melanoma.

As to `C=C1c2ccccc2N(S(=O)(=O)c2ccc(C)cc2)C12CCCCC2`, the TGI is above 100 µM in the assay with DMS 114 small cell lung; 58.5 µM with HOP-92 NSCLC; above 100 µM with A549 NSCLC; above 100 µM in the assay on U251 CNS; above 100 µM in the assay with KM20L2 colon; above 100 µM in the assay with MOLT-4 leukemia. This molecule also yielded a TGI with SK-MEL-28 melanoma above 100 µM.

For `CCn1c(-c2nonc2N)nc2c(C#CC(C)(C)O)ncc(OC[C@@H]3CCCN3)c21`, the GI50 was 1.71 µM with MCF7 breast; 14.5 µM in the assay with HOP-92 NSCLC; 6.96 µM in the assay with A549 NSCLC; above 25 µM in the assay on NCI/ADR-RES ovarian; 3.03 µM in the assay with U251 CNS; 0.136 µM with A498 renal. The results for the GI50 with MOLT-4 leukemia and with SK-MEL-28 melanoma were 3.01 µM and 12.1 µM, respectively. Further, the TGI in the assay on MCF7 breast is 9.73 µM; in the assay with HOP-92 NSCLC, above 25 µM; in the assay on A549 NSCLC, above 25 µM; in the assay with NCI/ADR-RES ovarian it was above 25 µM; with U251 CNS, above 22 µM; in the assay with A498 renal it was 1.97 µM. Also, the TGI in the assay with MOLT-4 leukemia and in the assay on SK-MEL-28 melanoma was above 25 µM throughout.

Regarding `Oc1cccc(-c2nc(N3CCOCC3)c3oc4ncccc4c3n2)c1`, the GI50 in the assay with MCF7 breast was 0.27 µM and 0.18 µM; with HOP-92 NSCLC it was 0.0237 µM and 0.0243 µM; in the assay on A549 NSCLC, 0.317 µM and 0.225 µM; in the assay with NCI/ADR-RES ovarian it was 0.147 µM and 0.225 µM; in the assay on U251 CNS, 0.346 µM and 0.384 µM; in the assay on A498 renal, 1.96 µM. In addition, the GI50 in the assay on MOLT-4 leukemia was 0.102 µM and 0.168 µM; in the assay with SK-MEL-28 melanoma, 0.152 µM and 0.0882 µM. Besides, the TGI in the assay with MCF7 breast is > 100 µM and 11.9 µM; with HOP-92 NSCLC, 0.131 µM and 0.216 µM; in the assay with U251 CNS it was > 44.5 µM and 10.9 µM; in the assay on A498 renal it was 9.35 µM and 3.98 µM; in the assay on MOLT-4 leukemia, above 100 µM; in the assay on SK-MEL-28 melanoma, 2.22 µM.

As to `COc1cc(-c2nn3c(=O)n(-c4ccc(Cl)cc4)c(=O)nc3s2)cc(OC)c1OC`, the GI50 is 44.4 µM in the assay with HOP-92 NSCLC; above 50 µM in the assay on A549 NSCLC; above 50 µM in the assay on KM20L2 colon; above 50 µM in the assay with A498 renal; 30.7 µM with MOLT-4 leukemia; above 50 µM in the assay with SK-MEL-28 melanoma. In addition, the TGI in the assay on HOP-92 NSCLC was 50 µM and 59.7 µM; in the assay on A549 NSCLC, above 100 µM; with U251 CNS it was above 69 µM; in the assay on KM20L2 colon it was above 100 µM; in the assay on A498 renal, above 100 µM; in the assay on MOLT-4 leukemia, 50 µM and > 100 µM. In the assay with SK-MEL-28 melanoma, this molecule displayed a TGI above 100 µM.

For `C(/C=C/N1CCCC1)=C\c1nc(N2CCCC2)c2ccccc2n1`, the TGI in the assay on DMS 114 small cell lung was 33.2 µM; with A549 NSCLC, above 100 µM; in the assay on KM20L2 colon it was 51.7 µM; in the assay on A498 renal it was above 100 µM; in the assay with MOLT-4 leukemia, 52.3 µM; in the assay with SK-MEL-28 melanoma it was 38.7 µM.

Consider `CCOc1cccc(/C=N/NC(=O)Cc2ccc(Nc3ccnc(C(F)(F)F)c3)cc2)c1O`, for which the GI50 in the assay on MCF7 breast was 2.39 µM; in the assay on HOP-92 NSCLC it was 1.9 µM; in the assay with A549 NSCLC it was 4.09 µM; with NCI/ADR-RES ovarian it was 4.23 µM; with U251 CNS, 1.58 µM; with A498 renal, 4.62 µM. Moreover, the results for the GI50 in the assay with MOLT-4 leukemia and in the assay with SK-MEL-28 melanoma were 0.499 µM and 2.97 µM, respectively. Also, the TGI was above 100 µM with MCF7 breast; 9.93 µM in the assay on HOP-92 NSCLC; above 100 µM in the assay with A549 NSCLC; above 100 µM with NCI/ADR-RES ovarian; above 100 µM in the assay on U251 CNS; 67 µM in the assay on A498 renal. Moreover, the TGI in the assay on MOLT-4 leukemia was 4.42 µM; in the assay on SK-MEL-28 melanoma it was above 100 µM.

Take `N#Cc1c(-c2ccc(Cl)cc2)csc1NC(=O)Nc1cccc(C(F)(F)F)c1`: the GI50 with MCF7 breast is 3.04 µM; with HOP-92 NSCLC, 2.34 µM; with A549 NSCLC it was 2.57 µM; in the assay with NCI/ADR-RES ovarian it was 2.1 µM; with U251 CNS, 2.09 µM; in the assay with A498 renal, 1.79 µM. In addition, the GI50 is 1.91 µM in the assay with MOLT-4 leukemia and 2.65 µM in the assay with SK-MEL-28 melanoma. Further, the TGI came to 9.97 µM with MCF7 breast; 5.93 µM in the assay with HOP-92 NSCLC; 11.4 µM with A549 NSCLC; 4.7 µM in the assay on NCI/ADR-RES ovarian; 5.46 µM with U251 CNS; 4.3 µM in the assay on A498 renal. Also, the TGI came to 7.77 µM with MOLT-4 leukemia and 8.97 µM in the assay with SK-MEL-28 melanoma.

As to `COc1ccc(-c2nn(-c3cccc(Cl)c3)cc2-c2cc(-c3cccs3)no2)cc1`, the GI50 in the assay with MCF7 breast was 3.53 µM; in the assay with HOP-92 NSCLC, 1.61 µM; with A549 NSCLC it was 3.56 µM; in the assay with NCI/ADR-RES ovarian, 4.01 µM; with U251 CNS, 3.61 µM; in the assay with A498 renal, 1.81 µM. Moreover, the GI50 is 2.96 µM with MOLT-4 leukemia and 4.93 µM in the assay with SK-MEL-28 melanoma. Moreover, the TGI is 16.9 µM in the assay on MCF7 breast; 8.13 µM with HOP-92 NSCLC; 24.5 µM in the assay on A549 NSCLC; 38.1 µM in the assay with NCI/ADR-RES ovarian; 15.4 µM in the assay on U251 CNS; 14.6 µM with A498 renal. Also, the TGI stood at 19.5 µM in the assay on MOLT-4 leukemia and 17.8 µM with SK-MEL-28 melanoma.

As for `O=C1Nc2ccc(Br)cc2C1=Nc1ccc(Cl)cc1`, the TGI was 27.1 µM with MCF7 breast; above 100 µM with HOP-92 NSCLC; above 100 µM with A549 NSCLC; 62.3 µM in the assay with NCI/ADR-RES ovarian; 88.8 µM in the assay with U251 CNS; above 100 µM in the assay with A498 renal. Also, the TGI in the assay on MOLT-4 leukemia was above 100 µM; with SK-MEL-28 melanoma, 82.5 µM.
